Results on four compounds are retold here after PMC5267425, “Identification of small molecule modulators of HIV-1 Tat and Rev protein accumulation” (Retrovirology, 2017).

Structures are written as SMILES. Where a SMILES comes first, the peptide text is derived from it. The star is where a group is joined. Cbz = O=C(OCc1ccccc1)*

Test [1] has as its system HIV-1 Tat (p14, p16) and Gag. Put plainly: Rescue of Tat/Gag expression by proteasome inhibitor MG132. Type of test: cell-based. The note with it: MG132 10 μM for 8 h, with 791, 833 or 892. Here is the method:
To assess effect of compounds on HIV-1 Tat stability, the decay of HIV-1 Tat levels was compared between DMSO-treated and compound-treated protein lysates in the presence of cycloheximide. In the first set of experiments, HIV-1 gene expression was induced with doxycylin (dox) for 24 h then 10 μg/mL cycloheximide was added to block new protein synthesis in combination with either DMSO or the compounds. Cells were harvested every 2 h and Tat protein levels measured by western blot. Quantification of the relative intensity of the detected bands was performed using ImageLab software (BioRad) and normalized to corresponding bands of the loading control (GAPDH) from at least three independent experiments. To determine whether the compounds’ effect on HIV-1 gene expression could be reversed by inhibition of the proteasome, compound treatment assay was performed as previously described with the addition of 10 μM MG132 (Sigma-Aldrich) to compound-treated cells 8 h prior to harvesting. Equal amounts of protein were run on 13 or 14% gels by SDS-PAGE, blotted and probed with antibodies for Tat and GAPDH. Quantification of the relative intensity of the detected bands was performed using ImageLab software (BioRad) and normalized to corresponding bands of the loading control (GAPDH) from at least three independent experiments.

Another test concerns HIV-1 US, SS and MS RNAs. The test can be described thus: qRTPCR of HIV-1 RNAs in 293T cells transfected with pHxbc2 R-/RI-. In kind it is cell-based. The note with it: 20 nM, 24 h, 293T (Figure S6). The procedure: Samples were processed and assayed as previously described using the BioRad Aurum Total RNA Lysis Kit (BioRad) as per manufacturer’s instructions with the addition of Turbo DNase (Ambion). Purified RNA (0.5–2 μg) was reverse transcribed using M-MLV (Invitrogen) to generate complementary DNA (cDNA). HIV-1 and actin mRNA levels in DMSO- and compound-treated samples were quantified by qPCR using the Mastercycler ep realplex (Eppendorf) as described by Wong et al.. Gene quantification was evaluated using the absolute quantification method, normalized to β-actin expression, and expressed relative to DMSO-treatment.
Additional file 1: Figure S1. […] Cell viability was measured by an XTT assay. […] Cells were analyzed after 24 h incubation with the compounds at the indicated concentrations ranging between 0–47 μM (791), 0–5 μM (833), or 0–62.5 μM (892). Results are expressed as the percentage (%) of viable cells relative to DMSO treatment ±SEM of two independent experiments performed in triplicate. […] Images are cropped to show a representative field of view. b The dose range of the compounds which inhibit HIV-1 GagGFP expression in HeLa rtTA HIVGagGFP C7 cells was measured by mean fluorescence intensity and expressed relative to fluorescence intensity in DMSO-treated samples (N ≥ 3, *p ≤ 0.05, **p ≤ 0.01, and ***p ≤ 0.001). […]
On the technique in general: Real-time PCR tracks product formation cycle by cycle.

A further test deals with p53. The arrangement: method as in PMID 27283735. The conditions noted are these: cited from earlier work.
The subject of test [2] is total protein synthesis in HeLa HIVrtTA∆Mls cells. Put plainly: SUnSET total protein synthesis. In kind it is cell-based. The conditions noted are these: negative control. Here is the method:
The effect of the compounds on nascent protein synthesis was measured by surface sensing of translation (SUnSET) as described by Schmidt et al.. Cells were incubated with puromycin, an aminoacyl tRNA analog, to allow puromycin incorporation into newly translated peptides and prevention of further ribosomal elongation by chain termination. To assess the effect of the compounds on protein translation, cells were prepared and treated as described above, but were incubated with 10 μg/mL of puromycin for a period of 30 min prior to harvesting cell lysates for protein analysis. Protein concentration of cell lysates was quantified by Bradford assay and equal amounts of protein (30–35 μg) was run on either 10% or 4–15% (gradient) gels. Following transfer to PVDF (BioRad), blots were probed with mouse monoclonal antibody to puromycin (anti-12D10, EMD Millipore). Blots were developed using ECL Plus (Perkin-Elmer) or Clarity (BioRad) and imaged using the ChemiDoc MP Imager (BioRad). To quantify the levels of protein synthesis, the volume intensity in each lane of compound-treated sample was calculated relative to the DMSO-treated sample and normalized to GAPDH loading control using ImageLab software (BioRad) from at least four independent experiments.

In the case of `CC(C)C[C@@H](C=O)NC(=O)[C@H](CC(C)C)NC(=O)[C@H](CC(C)C)NC(=O)OCc1ccccc1` [MG132, reference compound] (Cbz-Leu-Leu-Leu-aldehyde), in test [1], the “production of HIV-1 Gag on addition of MG132” value is on record as “did not restore”.

Take `CCC(=C/[C@H](C)C/C=C/C(C)=C/[C@@H](C)C(=O)[C@@H](C)[C@H](O)[C@@H](C)C/C(C)=C/C(=O)O)/C=C/[C@@H]1OC(=O)C=C[C@@H]1C` [leptomycin B]: in the test with HIV-1 US, SS and MS RNAs, the “HIV-1 MS RNA abundance” value is given as “little or no change”; the “HIV-1 US and SS RNA levels” value was “dramatic reduction”.

With `COc1cc(/C=C/C(=O)CC(=O)/C=C/c2ccc(O)c(OC)c2)ccc1O` [curcumin], in the test on p53, the “Tat and p53 levels” value is recorded as “reduces”.

In the case of `C[C@@H]1C[C@@H]([C@H](O)CC2CC(=O)NC(=O)C2)C(=O)[C@@H](C)C1` [cycloheximide, reference compound], the “puromycin signal (newly synthesized polypeptides)” value in test [2] is given as “little”.
